Measured values reported in US20240116985A1, “STAPLED PEPTIDES AND METHODS THEREOF” (priority 2020, published 2024).
≈ marks a conversion by molar mass, not a printed value. Where “and” joins values, the source holds several entries; their conditions need not be identical. Identical values can stand only once. Like-named read-outs stand apart in the source and are kept apart here.

How the values were obtained:
[1] = tested on: TCF/LEF luciferase Reporter in DLD1 cells; test: TCF reporter assay (DLD1 TCF/LEF luciferase reporter, Bright-Glo); format: cell-based; details: read-out: DLD1 4% Abs IC50
Method in brief: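 DLD1 cells stably carrying a TCF/LEF luciferase reporter were plated at 5000 cells/well in RPMI + 4% FBS and treated overnight with a 1:2 compound dilution series. Bright-Glo luminescence read on day 3; viability by CellTiter-Glo. Absolute IC50 determined.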

[2] = biological target: T1, full-length beta-Catenin (Uniprot ID P35222) (Homo sapiens, UniProt P35222); test: Fluorescence polarization IC50 (beta-catenin / 5FAM-TCF4 10-53 competition); format: binding; details: fluorescence polarization; read-out: beta-Catenin FP IC50
T1 construct: 10 nM full-length beta-Catenin (Uniprot ID P35222)
T1 sequence (P35222 1-781): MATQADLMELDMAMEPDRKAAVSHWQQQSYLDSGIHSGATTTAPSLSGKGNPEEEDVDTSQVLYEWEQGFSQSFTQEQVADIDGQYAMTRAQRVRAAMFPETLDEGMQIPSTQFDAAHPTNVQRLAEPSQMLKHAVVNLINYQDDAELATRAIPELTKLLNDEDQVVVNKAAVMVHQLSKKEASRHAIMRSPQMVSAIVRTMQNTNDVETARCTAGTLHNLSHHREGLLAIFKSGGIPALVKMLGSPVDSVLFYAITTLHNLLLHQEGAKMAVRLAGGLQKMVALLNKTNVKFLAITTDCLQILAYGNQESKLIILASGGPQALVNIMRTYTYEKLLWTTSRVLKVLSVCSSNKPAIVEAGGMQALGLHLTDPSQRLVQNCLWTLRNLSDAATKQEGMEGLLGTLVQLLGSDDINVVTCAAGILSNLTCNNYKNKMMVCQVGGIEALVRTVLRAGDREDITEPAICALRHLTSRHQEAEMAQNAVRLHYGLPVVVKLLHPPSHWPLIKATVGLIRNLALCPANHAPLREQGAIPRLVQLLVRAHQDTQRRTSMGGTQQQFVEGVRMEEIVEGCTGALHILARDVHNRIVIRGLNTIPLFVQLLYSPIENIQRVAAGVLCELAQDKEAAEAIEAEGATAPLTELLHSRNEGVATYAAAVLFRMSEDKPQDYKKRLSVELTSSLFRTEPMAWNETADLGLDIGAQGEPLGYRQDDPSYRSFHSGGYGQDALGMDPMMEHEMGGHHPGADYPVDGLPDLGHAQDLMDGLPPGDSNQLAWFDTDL

[3] = biological target: T2, beta-catenin/TCF4 engagement (Homo sapiens, UniProt P35222); test: Nano-BRET target engagement assay (B-cat-Halo & TCF4-Luc in HEK293 cells); format: cell-based; details: for BRET % Inhibition: replicates
T2 construct: expressed in transfected cells; host or cells: HEK293
T2 sequence (P35222 1-781): T1 sequence (P35222 1-781)

[4] = tested on: COLO320DM cells; format: cell-based; details: COLO320DM cells, read-out: COLO320DM Proliferation Abs IC50
Method in brief: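 COLO320DM cells at 250 cells/well in RPMI-1640 + 4% HI FBS, dosed after 18–22 h with a 7-point […] 1/2 dilution series from 20 uM down to 313 nM.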

[5] = Solubility in PBS; format: physicochemical; details: Solubility (uM)
Method in brief: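 Solubility is derived from HPLC peak areas: the ratio of the PBS supernatant peak to a 50 μM DMSO peptide peak, times 50 uM.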

[6] = tested on: HEK293 cells; test: in vitro; format: cell-based; details: human, 1.25 µM
Method: (§1) On Day 3, fluorescence was read with Nano-BRET substrates. Remove plates from incubator to allow to reach to RT (30 min). Also equilibrate CTG reagent to Rm Temp. Dilute Nano-BRET substrate 1:100 in Assay media. Add 25 uL of diluted substrate to each well and shake for 30 seconds. Read on ClarioSTAR or GloMAX right away (within 10 min). Donor emission @ 460 nm. Acceptor emission @ 618 nm. Use the same plate to measure cell viability (Cell Titer-Glo-2.0 (CTG) Viability test). After reading BRET signal, add CTG reagent to each well at 1:2 ratio and shake on orbital shaker for 2 min. Incubate at Rm Temp for 10-30 min. Read luminescence on ClarioSTAR or GloMAX. Analysis was performed using Prism. Non-linear regression. Log (inhibitor) vs response—variable slope (four parameters). For CTG data linear values (not logarithmic).

[7] = in vitro; format: cell-based; details: human, HEK293 cells, CTG (CellTiter Glo) Relative to Media
Method: as §1

[8] = CHI Log D procedure; format: physicochemical; details: pH 7.4, CHI Log D
[9] = DLD1 reporter, 4%, absolute IC50
[10] = absolute IC50, read-out: NanoBRET Abs IC50
[11] = plate row B = 20 uM, integration 0.3 s, reading 1

CC(=O)N1CCC[C@]12CC=CCCCC1(CCCC=CCCCOC(=O)N3CC[C@@](C(=O)N[C@@H](Cc4ccsc4)C(=O)N[C@@H](Cc4csc5ccccc45)C(=O)N[C@@H](CCC(N)=O)C(N)=O)(C3)NC(=O)[C@H](CC(C)C)NC(=O)[C@H](Cc3ccccc3)NC(=O)[C@H](C)NC(=O)[C@H](C)NC(=O)[C@H](Cc3cccc(C(=O)O)c3)NC(=O)[C@H](CC(=O)O)NC1=O)NC(=O)[C@H](CC(C)(C)C)NC(=O)[C@H](CC(=O)O)NC2=O (stereo partly drawn) [I-1462, Ac-PL3-Asp-Npg-B5-Asp-3COOHF-Ala-Ala-Phe-Leu-PyrS2-3Thi-BztA-Gln-NH2]
IC50 [1, 9]: 2700 nM
IC50 [2]: 8 nM
IC50 [3, 10]: 2300 nM
IC50 ([4]; absolute IC50): 8400 nM

CC(=O)N1CCC[C@]12CC=CCCCC1(CCCC=CCCCOC(=O)N3CC[C@@](C(=O)N[C@@H](Cc4ccccc4Cl)C(=O)N[C@@H](Cc4csc5ccccc45)C(=O)N[C@@H](CC(N)=O)C(=O)N[C@@H](C)C(=O)N[C@@H](C)C(=O)N[C@H](C)C(N)=O)(C3)NC(=O)[C@H](CC(C)C)NC(=O)[C@H](Cc3ccccc3)NC(=O)[C@H](C)NC(=O)[C@H](C)NC(=O)[C@H](Cc3cccc(C(=O)O)c3)NC(=O)[C@H](CC(=O)O)NC1=O)NC(=O)[C@H](CC(C)(C)C)NC(=O)[C@H](CC(=O)O)NC2=O (stereo partly drawn) [I-2041, Ac-PL3-Asp-Npg-B5-Asp-3COOHF-Ala-Ala-Phe-Leu-PyrS2-2C1F-BztA-Asn-Ala-Ala-dAla-NH2]
IC50 ([1]; DLD1 4%): 1900 nM
IC50 [2]: 16 nM
IC50 ([3]; read-out: NanoBRET Abs IC50): 2300 nM
IC50 [4]: > 20000 nM

CC[C@@H]1NC(=O)[C@H](Cc2ccccc2)NC(=O)[C@H](C)NC(=O)C(C)(C)NC(=O)[C@H](Cc2cccc(C(=O)O)c2)NC(=O)[C@H](CC(=O)O)NC(=O)C2(CCCC=CCCCOC(=O)N3CC[C@@](C(=O)N[C@@H](Cc4ccccc4C(F)(F)F)C(=O)N[C@@H](Cc4csc5ccccc45)C(=O)N[C@@H](CCC(=O)N(C)C)C(=O)N[C@@H](C)C(N)=O)(C3)NC1=O)CCCC=CC[C@]1(CCCN1C(C)=O)C(=O)N[C@@H](CC(=O)O)C(=O)N[C@@H](CC(C)(C)C)C(=O)N2 (stereo partly drawn) [I-2468, Ac-PL3-Asp-Npg-B5-Asp-3COOHF-Aib-Ala-Phe-Abu-PyrS2-2F3MeF-BztA-Me2Gln-Ala-NH2]
IC50 [1, 9]: 6400 nM
IC50 [2]: 38 nM
IC50 [3, 10]: 6200 nM
IC50 ([4]; absolute IC50): > 20000 nM

CC(=O)N1CCC[C@]12CC=CCCCC1(CCCC=CCCCOC(=O)N3CC[C@@](C(=O)N[C@@H](Cc4ccsc4)C(=O)N[C@@H](Cc4csc5ccccc45)C(=O)N[C@@H](CCC(N)=O)C(N)=O)(C3)NC(=O)[C@H](CC(N)=O)NC(=O)[C@H](CC(=O)O)NC(=O)[C@H](C)NC(=O)[C@H](C)NC(=O)[C@H](CC(=O)O)NC(=O)[C@H](CC(=O)O)NC1=O)NC(=O)[C@H](CC(C)(C)C)NC(=O)[C@H](Cc1ccccc1)NC2=O (stereo partly drawn) [I-797, Ac-PL3-Phe-Npg-B5-Asp-Asp-Ala-Ala-Asp-Asn-PyrS2-3Thi-BztA-Gln-NH2]
solubility at 15 min [5]: 45 µM (≈ 86.3 µg/mL)
CTG (CellTiter Glo) Relative to Media [6]: 101
viability at 0.625 µM [7]: 104%
viability at 1.25 µM [7]: 104%
viability at 2.5 µM [7]: 103%
viability at 5 µM [7]: 102%
viability at 10 µM [7]: 100%
viability at 20 µM [7]: 92%
BRET % Inhibition ([3]; 0.625 uM): −56.5% and −6.9% and 8.3%
BRET % Inhibition ([3]; 1.25 uM): −24.8% and −1.1% and −4.0%
BRET % Inhibition ([3]; 2.5 uM): −21.3% and 26.5% and −11.7%
BRET % Inhibition ([3]; 5 uM): −16.9% and −28.4% and −18.6%
BRET % Inhibition ([3]; 10 uM): −21.7% and −21.9% and 1.7%
BRET % Inhibition ([3]; 20 uM): −36.7% and −0.3% and −19.5%
inhibition at 10 µM ([3]; HEK293, @ 10 uM, read-out: NanoBRET % inh @ 10 uM): 4.3%
BRET Acceptor 600 LP raw reading [3, 11]: 860 and 660 and 640
BRET Donor 450 BP raw reading [3, 11]: 58480 and 55870 and 47990
BRET Acceptor 600 LP raw reading ([3]; plate row D = 5 uM): 510 and 420 and 630
BRET Donor 450 BP raw reading ([3]; plate row D = 5 uM): 38850 and 29900 and 47500
BRET Donor 450 BP raw reading ([3]; plate row E = 2.5 uM): 34130 and 22720 and 40100
BRET Acceptor 600 LP raw reading ([3]; plate row G = 0.625 uM): 410 and 440 and 530
BRET Donor 450 BP raw reading ([3]; plate row G = 0.625 uM): 25180 and 35670 and 47630
IC50 ([3]; read-out: NanoBRET IC50): > 20000 nM
chromatographic logD [8]: 2.32
